# Data as given in publication PMC12435445, “Crown Ether–Peptide Rotaxanes” (Angewandte Chemie (International Ed. in English), 2025).
# Experiment: Stability of rotaxane positional isomers to heating or standing, followed by 1H NMR
# Format: physicochemical
# Experimental: The properties of the 1:0:0‐, 0:1:0‐ and 0:0:1‐diastereomers of 24C8⊂16 were probed using a range of spectroscopic and spectrometric techniques. No change in the ^1H NMR spectra of the rotaxane positional isomers occurred upon heating at 70 °C in DMSO‐d6 for 2 h, or after prolonged periods at room temperature. […] When compared to the noninterlocked thread peptide 16; significant downfield shifts are observed for Hb in 1:0:0–24C8⊂16 (ΔδHb = +0.45 ppm), Hh in 0:1:0–24C8⊂16 (ΔδHh = +0.30 ppm) and Hq in 0:0:1–24C8⊂16 (ΔδHq = +0.21 ppm). The protons associated with the encapsulated glycine residue are also downshifted (protons Hf, Ho and Hu, in 1:0:0–24C8⊂16, 0:1:0–24C8⊂16 and 0:0:1–24C8⊂16, respectively). Substantial upfield shifts for the amide protons Ha, He, Hg, Hn (ΔδH = −0.78, −0.43, −0.40, and −0.49 ppm) in 1:0:0–24C8⊂16, Hg, Hn, Hp, and Ht in 0:1:0–24C8⊂16 (ΔδH = −0.26, −0.48, −0.45, and −0.44 ppm), and Hp, Ht and Hv (ΔδH = −0.33, −0.44, and −0.63 ppm) in 0:0:1–24C8⊂16 indicate that the crown ether also interacts with the amide group of the C‐adjacent residue. As in the tripeptide rotaxanes 24C8⊂4–14, the diastereotopic splitting for the encapsulated glycine methylene becomes more pronounced, as do the protons of the leucine residue (Hd), within 1:0:0–24C8⊂16. The presence of the macrocycle reduces the rotation of nearby amides within the compartment it occupies.
substance,measurement,setting,value
"Boc‐Leu‐Gly‐Trp‐Gly‐Tyr(TIPS)‐Gly‐Phe‐OMe [1:0:0–24C8⊂16, 24C8 crown ether–heptapeptide [2]rotaxane, ring on left‐hand glycine between Boc‐Leu and Trp of axle 16]",change in the 1H NMR spectra (interconversion of positional isomers or dethreading of macrocycle),heating at 70 °C in DMSO-d6 for 2 h,No change
same,change in the 1H NMR spectra (interconversion of positional isomers or dethreading of macrocycle),prolonged periods at room temperature,No change
